Assay results as given in US20260146062A1, “COMPOUNDS AND METHODS FOR TREATING DISEASES CAUSED BY VIRUSES AND BACTERIA” (The Trustees of Indiana University, priority 2022, published 2026).

Test system: SARS-CoV2 virus
Assay: Inhibition of Viral Replication (plaque count)
Format: cell-based
Details: with increased concentration of inhibitor

CC(C)C[C@H](NC(=O)c1cc2ccccc2[nH]1)C(=O)NC(C=O)Cc1ccc(F)cc1 (stereo partly shown) [Compound 112]
inhibition ability (FIG. 6): increased inhibition ability of Compound No. 112 with increased concentration
